Values joined by “and” are separate entries in the source; they are usually repeats but may differ in a detail not shown here. Equal entries are not always repeated. Toxic doses and inconclusive results are not listed.
System: P388 leukemia ip, CD2F1 mice, survival T/C
Test: NCI In Vivo Anticancer Drug Screen. Data for tumor model P388 Leukemia (intraperitoneal) in CD2F1 (CDF1) mice
Conditions: endpoint: median survival time, higher = longer survival
In short: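 Mice carrying the transplanted tumor received test compound or vehicle. Survival was recorded in each group, and the value is the treated-group measurement divided by that of the vehicle-treated control group.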

[1] = dose: 60.0 mg/kg/injection, schedule: Q01DX005 (ip), vehicle: saline with Tween-80
[2] = dose: 120.0 mg/kg/injection, schedule: Q01DX005 (ip), vehicle: saline with Tween-80
[3] = dose: 240.0 mg/kg/injection, schedule: Q01DX005 (ip), vehicle: saline with Tween-80
[4] = dose: 50.0 mg/kg/injection, schedule: Q01DX005 (ip), vehicle: Klucel (hydroxypropylcellulose) (HPC)
[5] = dose: 100.0 mg/kg/injection, schedule: Q01DX005 (ip), vehicle: Klucel (hydroxypropylcellulose) (HPC)
[6] = dose: 200.0 mg/kg/injection, schedule: Q01DX005 (ip), vehicle: Klucel (hydroxypropylcellulose) (HPC)
[7] = dose: 50.0 mg/kg/injection, schedule: Q01DX005 (ip), vehicle: saline with Tween-80
[8] = dose: 100.0 mg/kg/injection, schedule: Q01DX005 (ip), vehicle: saline with Tween-80
[9] = dose: 200.0 mg/kg/injection, schedule: Q01DX005 (ip), vehicle: saline with Tween-80
[10] = dose: 60.0 mg/kg/injection, schedule: Q01DX005 (ip), vehicle: Klucel (hydroxypropylcellulose) (HPC)
[11] = dose: 120.0 mg/kg/injection, schedule: Q01DX005 (ip), vehicle: Klucel (hydroxypropylcellulose) (HPC)
[12] = dose: 240.0 mg/kg/injection, schedule: Q01DX005 (ip), vehicle: Klucel (hydroxypropylcellulose) (HPC)
[13] = dose: 50.0 mg/kg/injection, schedule: Q01DX009 (ip), vehicle: saline with Tween-80
[14] = dose: 100.0 mg/kg/injection, schedule: Q01DX009 (ip), vehicle: saline with Tween-80
[15] = dose: 200.0 mg/kg/injection, schedule: Q01DX009 (ip), vehicle: saline with Tween-80
[16] = dose: 100.0 mg/kg/injection, schedule: Q04DX003 (ip), vehicle: saline with Tween-80
[17] = dose: 200.0 mg/kg/injection, schedule: Q04DX003 (ip), vehicle: saline with Tween-80

SMILES: C=CC1(C)CCC(C(C)C(=O)/C=C/C(C)(C)O)O1 (stereo not given)
- T/C (dose: 22.0 mg/kg/injection, schedule: Q01DX005 (ip), vehicle: Klucel (hydroxypropylcellulose) (HPC)): 105 % of control
- T/C (dose: 44.0 mg/kg/injection, schedule: Q01DX005 (ip), vehicle: Klucel (hydroxypropylcellulose) (HPC)): 113 % of control
- T/C (dose: 88.0 mg/kg/injection, schedule: Q01DX005 (ip), vehicle: Klucel (hydroxypropylcellulose) (HPC)): 114 % of control
- T/C (dose: 176.0 mg/kg/injection, schedule: Q01DX005 (ip), vehicle: Klucel (hydroxypropylcellulose) (HPC)): 118 % of control

SMILES: CCN1Cc2c(/C=C/c3ccccc3)nc3ccc(OC)cc3c2N(c2cccc(Cl)c2)C1
- T/C (dose: 25.0 mg/kg/injection, schedule: Q01DX009 (ip), vehicle: Klucel (hydroxypropylcellulose) (HPC)): 103 % of control
- T/C (dose: 50.0 mg/kg/injection, schedule: Q01DX009 (ip), vehicle: Klucel (hydroxypropylcellulose) (HPC)): 94 % of control
- T/C (dose: 100.0 mg/kg/injection, schedule: Q01DX009 (ip), vehicle: Klucel (hydroxypropylcellulose) (HPC)): 102 % of control
- T/C (dose: 200.0 mg/kg/injection, schedule: Q01DX009 (ip), vehicle: Klucel (hydroxypropylcellulose) (HPC)): 98 % of control

SMILES: Cc1cc2nnn(-c3ncccc3[N+](=O)[O-])c2cc1C
- T/C [1]: 104 % of control
- T/C [2]: 101 % of control
- T/C [3]: 101 % of control

SMILES: N=Nc1c(OC(=O)Nc2ccccc2)[nH]c2ccccc12
- T/C [4]: 90 % of control
- T/C [5]: 90 % of control
- T/C [6]: 87 % of control

SMILES: C(=C\c1ccccn1)/c1ccc(/C=C/c2ccccn2)cc1
- T/C [1]: 98 % of control
- T/C [2]: 103 % of control
- T/C [3]: 97 % of control

SMILES: C[Si](C)(C)/C=C1\OC=CC(c2ccccc2)O1 (stereo not given)
- T/C (dose: 100.0 mg/kg/injection, schedule: Q01DX001 (ip), vehicle: saline with Tween-80): 99 % of control
- T/C (dose: 200.0 mg/kg/injection, schedule: Q01DX001 (ip), vehicle: saline with Tween-80): 100 % of control
- T/C (dose: 400.0 mg/kg/injection, schedule: Q01DX001 (ip), vehicle: saline with Tween-80): 103 % of control

SMILES: O=C(NCCCBr)c1csc(-c2csc(CCNC(=O)C(F)(F)F)n2)n1
- T/C (dose: 6.25 mg/kg/injection, schedule: Q01DX005 (ip), vehicle: saline with Tween-80): 89 % of control
- T/C (dose: 12.5 mg/kg/injection, schedule: Q01DX005 (ip), vehicle: saline with Tween-80): 104 % of control
- T/C (dose: 25.0 mg/kg/injection, schedule: Q01DX005 (ip), vehicle: saline with Tween-80): 95 % of control
- T/C [7]: 97 % of control
- T/C [8]: 90 % of control
- T/C [9]: 87 % of control

SMILES: CCOC(=O)c1ccc(OC)c2[nH]c3c(c(=O)c12)C(=O)c1[nH]c2c(OC)ccc(C(=O)OCC)c2c(=O)c1C3=O
- T/C (dose: 100.0 mg/kg/injection, schedule: Q04DX003 (ip), vehicle: Klucel (hydroxypropylcellulose) (HPC)): 97 % of control
- T/C (dose: 200.0 mg/kg/injection, schedule: Q04DX003 (ip), vehicle: Klucel (hydroxypropylcellulose) (HPC)): 103 % of control
- T/C (dose: 400.0 mg/kg/injection, schedule: Q04DX003 (ip), vehicle: Klucel (hydroxypropylcellulose) (HPC)): 100 % of control

SMILES: COc1ccc(OC)c(NC(=O)SC(C)C)c1
- T/C [10]: 93 % of control
- T/C [11]: 96 % of control
- T/C [12]: 92 % of control

SMILES: Nc1nc(=O)n(CCCSc2ccc([N+](=O)[O-])cc2)cc1-c1ccc(Cl)c(Cl)c1
- T/C [10]: 87 % of control
- T/C [11]: 97 % of control
- T/C [12]: 88 % of control

SMILES: N#CC12OC1(Cl)CCCC2(Cl)Cl (stereo not given)
- T/C [13]: 95 % of control
- T/C [14]: 95 % of control
- T/C [15]: 86 % of control

SMILES: COc1cc2c(cc1O)N=C[C@@H]1CCC(O)N1C2=O (mixture of isomers)
- T/C (dose: 1.0 mg/kg/injection, schedule: Q01DX009 (ip), vehicle: saline): 96 % of control
- T/C (dose: 2.0 mg/kg/injection, schedule: Q01DX009 (ip), vehicle: saline): 104 % of control

SMILES: O=c1[nH]c(=S)[nH]nc1/C=C/c1cccc(I)c1
- T/C (dose: 12.5 mg/kg/injection, schedule: Q04DX002 (ip), vehicle: saline): 100 % of control
- T/C (dose: 25.0 mg/kg/injection, schedule: Q04DX002 (ip), vehicle: saline): 100 % of control
- T/C (dose: 50.0 mg/kg/injection, schedule: Q04DX002 (ip), vehicle: saline): 100 % of control
- T/C (dose: 200.0 mg/kg/injection, schedule: Q04DX002 (ip), vehicle: saline): 106 % of control

SMILES: S=c1[nH]nc(-c2ccccc2)n1C1CCCCC1
- T/C (dose: 50.0 mg/kg/injection, schedule: Q04DX003 (ip), vehicle: saline with Tween-80): 97 % of control
- T/C [16]: 100 % of control
- T/C [17]: 93 % of control

SMILES: COc1cccc(-n2c(=S)[nH]c3ccccc3c2=O)c1
- T/C [7]: 93 % of control
- T/C [8]: 87 % of control
- T/C [9]: 89 % of control

SMILES: O=C(O)c1ccc(O)c(S)c1
- T/C (dose: 100.0 mg/kg/injection, schedule: Q04DX003 (ip), vehicle: alcohol): 106 % of control
- T/C (dose: 200.0 mg/kg/injection, schedule: Q04DX003 (ip), vehicle: alcohol): 101 % of control
- T/C (dose: 400.0 mg/kg/injection, schedule: Q04DX003 (ip), vehicle: alcohol): 105 % of control

SMILES: CC(O)C(NCNC(=O)C1=C(O)C2(O)C(=O)C3=C(O)c4c(O)cccc4C(C)(O)C3CC2C(N(C)C)C1=O)C(=O)O (stereo not given)
- T/C (dose: 25.0 mg/kg/injection, schedule: Q01DX005 (ip), vehicle: saline): 107 % of control
- T/C (dose: 50.0 mg/kg/injection, schedule: Q01DX005 (ip), vehicle: saline): 108 % of control
- T/C (dose: 100.0 mg/kg/injection, schedule: Q01DX005 (ip), vehicle: saline): 111 % of control
- T/C [16]: 104 % of control
- T/C (dose: 200.0 mg/kg/injection, schedule: Q01DX005 (ip), vehicle: saline): 100 % of control
- T/C [17]: 104 % of control
- T/C (dose: 400.0 mg/kg/injection, schedule: Q04DX003 (ip), vehicle: saline with Tween-80): 104 % of control

SMILES: O=C1c2ccccc2C(=O)N1c1ccccc1Br
- T/C [4]: 100 % of control
- T/C [5]: 97 % of control
- T/C [6]: 101 % of control

SMILES: CN=C(NC#N)NCCSCc1ccc2ccccc2n1
- T/C (dose: 50.0 mg/kg/injection, schedule: Q01DX005 (ip), vehicle: distilled water + Tween-80 + alcohol): 115 % of control
- T/C (dose: 100.0 mg/kg/injection, schedule: Q01DX005 (ip), vehicle: distilled water + Tween-80 + alcohol): 94 % of control

SMILES: NCCCNCCCCNC(=O)C(O)NC(=O)CCCCCCN=C(N)N (stereo not given)
- T/C (dose: 4.4 mg/kg/injection, schedule: Q01DX009 (ip), vehicle: other): 193 % of control and 195 % of control and 198 % of control
- T/C (dose: 4.4 mg/kg/injection, schedule: Q01DX009 (ip), vehicle: saline): 193 % of control and 194 % of control and 200 % of control
- T/C (dose: 4.5 mg/kg/injection, schedule: Q01DX009 (ip), vehicle: other): 193 % of control
- T/C (dose: 4.5 mg/kg/injection, schedule: Q01DX009 (ip), vehicle: saline): 188 % of control and 196 % of control
- T/C (dose: 6.25 mg/kg/injection, schedule: Q01DX005 (ip), vehicle: saline): 159 % of control
- T/C (dose: 12.5 mg/kg/injection, schedule: Q01DX005 (ip), vehicle: saline): 165 % of control and 172 % of control
- T/C (dose: 34.0 mg/kg/injection, schedule: Q01DX009 (ip), vehicle: saline): 205 % of control

SMILES: CCCCCCn1c(Cl)c(C(=O)O)c2ccccc21
- T/C (dose: 100.0 mg/kg/injection, schedule: Q04DX002 (ip), vehicle: saline with Tween-80): 99 % of control
- T/C (dose: 200.0 mg/kg/injection, schedule: Q04DX002 (ip), vehicle: saline with Tween-80): 97 % of control
- T/C (dose: 400.0 mg/kg/injection, schedule: Q04DX002 (ip), vehicle: saline with Tween-80): 95 % of control

SMILES: O=C(Nc1nc2c(Cl)cccc2s1)C(F)(F)C(F)(F)C(F)(F)F (tested in a mixture with another compound)
- T/C [13]: 114 % of control
- T/C [14]: 101 % of control

SMILES: COc1ccc(NC(=O)CCC(=O)O)cc1
- T/C [14]: 95 % of control
- T/C [15]: 95 % of control
- T/C (dose: 400.0 mg/kg/injection, schedule: Q01DX009 (ip), vehicle: saline with Tween-80): 91 % of control

— PubChem BioAssay AID330 (DTP/NCI, 2004)
